# Test results: patent EP0652009A1, “Identification and use of protease inhibitors” (ELI LILLY AND COMPANY, priority 1993, dated 1995)
# Non-standard residues stand in square brackets, D forms with d. Residues, ends and D or L forms follow the SMILES beside them. 2Nal = N[C@@H](Cc1ccc2ccccc2c1)C(=O)O; Sta = CC(C)C[C@H](N)[C@@H](O)CC(=O)O
# Target: Cathepsin D (Homo sapiens, UniProt P07339)
# Assay: Assay 3: cathepsin D inhibition activity (non-cellular assay, chromogenic substrate)
# Format: biochemical
# Set-up: Frozen human placental tissue was thawed and homogenized in 10mM Tris-HCl, pH 7.4; from tissue; host or cells: human placenta
# Conditions: cathepsin D from human placental tissue, pH 3.7, 37°C
# Method: A third non-cellular assay for determining in vitro aspartyl protease inhibitory activity is generally described in Jupp, R.A. et al., (1990) Biochem. J., 265:871-878 and Rao et al., J. Med. Chem. (1993), in press. The assay is carried out by incubating a test compound with a suitable aspartyl protease, such as cathepsin D, in the presence of a chromogenic substrate. The inhibition constant, Ki, value may then be determined by quantifying the competitive inhibition of the hydrolysis of the chromogenic substrate. A variety of chromogenic substrates that are useful for assaying aspartyl protease activity are discussed in Dunn, et al., (1986) Biochem. J., 237:899-906. A preferred chromogenic substrate for a cathepsin D assay is disclosed in Scarborough, P.E. et al., Protein Science, (1993), 2:264-276.
# Concentrations of substrate solutions and cleavage products may be verified using amino acid analysis. The enzyme preparations may be titrated with a tightly binding inhibitor to quantitate the active concentration of the enzyme. Enzyme concentrations are typically in the range of from 1-6 nM. […]
# A decrease in absorbance in the range of 284-324 nm may be monitored using a spectrophotometer. Absorbance readings are typically taken at various timepoints. […] Estimates of Ki may then be determined using the Dixon construction. […]
# Cathepsin D, sequence (P07339 65-412): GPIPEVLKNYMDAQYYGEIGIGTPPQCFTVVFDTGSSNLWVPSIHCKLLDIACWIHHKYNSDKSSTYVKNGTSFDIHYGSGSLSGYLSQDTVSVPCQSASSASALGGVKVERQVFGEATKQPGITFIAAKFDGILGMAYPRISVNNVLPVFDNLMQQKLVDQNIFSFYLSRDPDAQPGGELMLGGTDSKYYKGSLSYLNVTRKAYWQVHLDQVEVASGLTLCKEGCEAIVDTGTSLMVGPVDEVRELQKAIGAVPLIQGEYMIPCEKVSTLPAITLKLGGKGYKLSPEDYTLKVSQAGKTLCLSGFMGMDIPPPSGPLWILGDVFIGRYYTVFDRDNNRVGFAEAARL
structure (smiles),measurement,value
"CC(=O)N[C@@H](Cc1ccc2ccccc2c1)C(=O)N[C@H](C(=O)N[C@@H](CC(C)C)[C@@H](O)CC(=O)N[C@@H](CC(C)C)C(=O)N[C@@H](Cc1ccc2ccccc2c1)C(N)=O)C(C)C [Example 36, Acetyl-β-naphthylalanine-valine-statine-leucine-β-naphthylalanine-amide] (Ac-[2Nal]V[Sta]L[2Nal]-NH2)",Ki,0.39 ± 0.04 nM
